Test system: NCI-H196 complex spheroid growth, percent test/control
Assay: Anticancer human tumor NCI-H196 cell line growth inhibition [AhR];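 also: seven days of drug exposure starting three days after plating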;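 as to viability, T/C: 100% = DMSO vehicle control wells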
Details: for IC50: curve of first compound; for viability, T/C: stronger effect = lower value
Outline: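 Spheroids combined tumor cells with HUVEC endothelial cells and human MSCs as stroma. AhR antagonists were paired with standard or investigational drugs, each dosed in half-log steps down from near clinical Cmax, or from 10 microM where Cmax was unknown.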

[1] = second compound 0.1 µM, first compound 0.0316 µM
[2] = second compound 0.1 µM, first compound 0.1 µM
[3] = second compound 0.1 µM, first compound 0.316 µM
[4] = second compound 0.1 µM, first compound 1 µM
[5] = second compound 0.1 µM, first compound 3.16 µM
[6] = second compound 0.1 µM, first compound 10 µM
[7] = second compound 0.316 µM, first compound 0.0316 µM
[8] = second compound 0.316 µM, first compound 0.1 µM
[9] = second compound 0.316 µM, first compound 0.316 µM
[10] = second compound 0.316 µM, first compound 1 µM
[11] = second compound 0.316 µM, first compound 3.16 µM
[12] = second compound 0.316 µM, first compound 10 µM
[13] = second compound 1 µM, first compound 0.0316 µM
[14] = second compound 1 µM, first compound 0.1 µM
[15] = second compound 1 µM, first compound 0.316 µM
[16] = second compound 1 µM, first compound 1 µM
[17] = second compound 1 µM, first compound 3.16 µM
[18] = second compound 1 µM, first compound 10 µM
[19] = second compound 3.16 µM, first compound 0.0316 µM
[20] = second compound 3.16 µM, first compound 0.1 µM
[21] = second compound 3.16 µM, first compound 0.316 µM
[22] = second compound 3.16 µM, first compound 1 µM
[23] = second compound 3.16 µM, first compound 3.16 µM
[24] = second compound 3.16 µM, first compound 10 µM
[25] = second compound 10 µM, first compound 0.0316 µM
[26] = second compound 10 µM, first compound 0.1 µM
[27] = second compound 10 µM, first compound 0.316 µM
[28] = second compound 10 µM, first compound 1 µM
[29] = second compound 10 µM, first compound 3.16 µM
[30] = second compound 10 µM, first compound 10 µM

| SMILES | IC50 (second compound 0.1 µM) [nM] | IC50 (second compound 0.316 µM) [nM] | IC50 (second compound 1 µM) [nM] | IC50 (second compound 3.16 µM) [nM] | IC50 (second compound 10 µM) [nM] | viability, T/C [1] [%] | viability, T/C [2] [%] | viability, T/C [3] [%] | viability, T/C [4] [%] | viability, T/C [5] [%] | viability, T/C [6] [%] | viability, T/C [7] [%] | viability, T/C [8] [%] | viability, T/C [9] [%] | viability, T/C [10] [%] | viability, T/C [11] [%] | viability, T/C [12] [%] | viability, T/C [13] [%] | viability, T/C [14] [%] | viability, T/C [15] [%] | also measured |
| --- | --- | --- | --- | --- | --- | --- | --- | --- | --- | --- | --- | --- | --- | --- | --- | --- | --- | --- | --- | --- | --- |
| NS(=O)(=O)OCC1CC(n2ccc3c(NC4CCc5ccccc54)ncnc32)CC1O (stereo not given) + Cc1cncc(-c2nc(NCCc3c[nH]c4ccccc34)c3ncn(C(C)C)c3n2)c1 | > 10000 | > 10000 | > 10000 | > 10000 | > 10000 | 73.7 | 65.6 | 57.3 | 48.6 | 77 | 68.2 | 80 | 63.3 | 56.3 | 55.6 | 58.1 | 64.9 | 74.3 | 66.7 | 60.6 | viability, T/C [16]: 49.3%; viability, T/C [17]: 72%; viability, T/C [18]: 59.3%; viability, T/C [19]: 81.8%; viability, T/C [20]: 81.8%; viability, T/C [21]: 66.8%; viability, T/C [22]: 53.8%; viability, T/C [23]: 60.7%; viability, T/C [24]: 66.2%; viability, T/C [25]: 102%; viability, T/C [26]: 91.7%; viability, T/C [27]: 96.4%; viability, T/C [28]: 79.6%; viability, T/C [29]: 74.8%; viability, T/C [30]: 61.6% |
| O=C(C=Cc1cccc(S(=O)(=O)Nc2ccccc2)c1)NO + Cc1cncc(-c2nc(NCCc3c[nH]c4ccccc34)c3ncn(C(C)C)c3n2)c1 | 1300 | 1360 | 1120 | 1290 | 1380 | 102 | 102 | 79.6 | 63.6 | 18.5 | 0.47 | 103 | 103 | 96.2 | 64.1 | 12.2 | 0.53 | 110 | 115 | 110 | viability, T/C [16]: 51.9%; viability, T/C [17]: 18.3%; viability, T/C [18]: 1.69%; viability, T/C [19]: 114%; viability, T/C [20]: 99.5%; viability, T/C [21]: 96.7%; viability, T/C [22]: 55.8%; viability, T/C [23]: 21.7%; viability, T/C [24]: 0.41%; viability, T/C [25]: 89.3%; viability, T/C [26]: 87.8%; viability, T/C [27]: 79.5%; viability, T/C [28]: 64.3%; viability, T/C [29]: 15.7%; viability, T/C [30]: 0.74% |

Source: PubChem BioAssay AID1919016 (Molecular Pharmacology Branch, DTP, NCI, 2023)
